The results in this text go back to patent publication US11661431B2, “Thienopyrrole compounds” (Gilead Sciences, Inc., priority 2021, dated 2023).

For one assay, the target named is TLR7 (Homo sapiens (Human), UniProt Q9NYK1). The assay can be described thus: TLR7 human peripheral blood mononuclear cell (PBMC) cell-based assay (GS-986 as agonist; IL-6 and IFNα readout). The following applies: human PBMCs, TLR7 agonist GS-986 at 400 nM, 6 hours, antagonist potency; read-out: TLR-7 EC50. On the procedure:
Human peripheral blood mononuclear cells (PBMCs) consist of lymphocytes, monocytes and dendritic cells that express TLR7, TLR8 and TLR9. These cells respond to TLR7, TLR8 and TLR9 ligand stimulation and produce cytokines and chemokines in vitro and in vivo. Human PBMCs are therefore suitable to be used in a cell-based assay to assess the in vitro potency of a TLR 7, 8, and/or 9 antagonist.
After counting, the cell density was adjusted to 2 million cells/ml and incubated for 1 hour at 37° C., 5% CO2 for recovery. Following the recovery, the cells were plated by adding 50 μl per well (100,000 cells) to 384-well cell culture plates (Greiner) containing 250 nl of test antagonists in 100% DMSO per well, in a 10 points dose response in quadruplicates. PBMCs were incubated in the presence of test antagonists for one hour at 37° C., 5% CO2 before being stimulated with a TLR7 or TLR9agonist. […] PBMCs were incubated in the presence of the test antagonist and the TLR7 (or TLR9) agonist for an additional 6 hours at 37° C., 5% CO2. At the end of the incubation, the cell culture plates were centrifuged at 500 g for 5 min, and the cell culture supernatant was collected. The level of cytokines (IL-6 and IFNα) in the supernatant was measured by electrochemiluminescence immunoassays (Mesoscale Discovery) following manufacturer's recommended protocols.

For the next assay, the target named is TLR8 (Homo sapiens (Human), UniProt Q9NR97). Briefly: TLR8 human peripheral blood mononuclear cell (PBMC) cell-based assay (Compound A as agonist; TNFα and IL12p40 readout). The following applies: human PBMCs, TLR8 agonist Compound A at 800 nM, 6 hours, antagonist potency; read-out: TLR-8 EC50. The method, then:
After counting, the cell density was adjusted to 2 million cells/ml and incubated for 1 hour at 37° C., 5% CO2 for recovery. Following the recovery, the cells were plated by adding 50 μl per well (100,000 cells) to 384-well cell culture plates (Greiner) containing 250 nl of test antagonists in 100% DMSO per well, in a 10 points dose response in quadruplicates. PBMCs were incubated in the presence of antagonists for one hour at 37° C., 5% CO2 before being stimulated with TLR8 agonist. […] PBMCs were incubated in the presence of antagonist and the TLR8 agonist for an additional 6 hours at 37° C., 5% CO2. At the end of the incubation, the cell culture plates were centrifuged at 500 g for 5 min, and the cell culture supernatant was collected. The level of cytokines (TNFα and IL12p40) in the supernatant was measured by electrochemiluminescence immunoassays (Mesoscale Discovery) following manufacturer's recommended protocols.

Sequence of TLR8 (Q9NR97 27-1041): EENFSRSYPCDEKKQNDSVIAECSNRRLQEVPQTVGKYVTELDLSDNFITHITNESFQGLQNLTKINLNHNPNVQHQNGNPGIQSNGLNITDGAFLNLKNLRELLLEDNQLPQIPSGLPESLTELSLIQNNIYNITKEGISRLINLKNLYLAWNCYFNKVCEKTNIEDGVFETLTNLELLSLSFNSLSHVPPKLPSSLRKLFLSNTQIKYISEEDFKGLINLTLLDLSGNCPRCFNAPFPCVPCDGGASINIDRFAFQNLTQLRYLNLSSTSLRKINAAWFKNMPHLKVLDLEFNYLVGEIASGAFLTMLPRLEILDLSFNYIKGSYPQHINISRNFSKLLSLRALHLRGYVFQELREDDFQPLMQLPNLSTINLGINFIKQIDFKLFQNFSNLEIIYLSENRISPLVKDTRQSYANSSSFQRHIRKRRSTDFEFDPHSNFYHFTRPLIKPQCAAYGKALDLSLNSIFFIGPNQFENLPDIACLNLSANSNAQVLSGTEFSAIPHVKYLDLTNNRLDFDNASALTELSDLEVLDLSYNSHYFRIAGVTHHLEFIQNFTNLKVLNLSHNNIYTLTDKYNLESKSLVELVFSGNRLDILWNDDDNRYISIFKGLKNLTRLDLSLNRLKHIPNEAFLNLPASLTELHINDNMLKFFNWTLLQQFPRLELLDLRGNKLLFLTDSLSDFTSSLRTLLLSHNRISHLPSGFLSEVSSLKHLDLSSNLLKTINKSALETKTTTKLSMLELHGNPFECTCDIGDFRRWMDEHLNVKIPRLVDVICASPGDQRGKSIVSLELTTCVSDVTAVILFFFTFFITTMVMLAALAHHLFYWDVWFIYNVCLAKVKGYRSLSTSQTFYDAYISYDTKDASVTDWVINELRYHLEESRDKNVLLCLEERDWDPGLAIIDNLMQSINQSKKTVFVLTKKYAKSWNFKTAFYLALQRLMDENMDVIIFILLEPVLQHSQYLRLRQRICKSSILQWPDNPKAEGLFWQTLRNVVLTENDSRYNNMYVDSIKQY
Sequence of TLR7 (Q9NYK1 27-1049): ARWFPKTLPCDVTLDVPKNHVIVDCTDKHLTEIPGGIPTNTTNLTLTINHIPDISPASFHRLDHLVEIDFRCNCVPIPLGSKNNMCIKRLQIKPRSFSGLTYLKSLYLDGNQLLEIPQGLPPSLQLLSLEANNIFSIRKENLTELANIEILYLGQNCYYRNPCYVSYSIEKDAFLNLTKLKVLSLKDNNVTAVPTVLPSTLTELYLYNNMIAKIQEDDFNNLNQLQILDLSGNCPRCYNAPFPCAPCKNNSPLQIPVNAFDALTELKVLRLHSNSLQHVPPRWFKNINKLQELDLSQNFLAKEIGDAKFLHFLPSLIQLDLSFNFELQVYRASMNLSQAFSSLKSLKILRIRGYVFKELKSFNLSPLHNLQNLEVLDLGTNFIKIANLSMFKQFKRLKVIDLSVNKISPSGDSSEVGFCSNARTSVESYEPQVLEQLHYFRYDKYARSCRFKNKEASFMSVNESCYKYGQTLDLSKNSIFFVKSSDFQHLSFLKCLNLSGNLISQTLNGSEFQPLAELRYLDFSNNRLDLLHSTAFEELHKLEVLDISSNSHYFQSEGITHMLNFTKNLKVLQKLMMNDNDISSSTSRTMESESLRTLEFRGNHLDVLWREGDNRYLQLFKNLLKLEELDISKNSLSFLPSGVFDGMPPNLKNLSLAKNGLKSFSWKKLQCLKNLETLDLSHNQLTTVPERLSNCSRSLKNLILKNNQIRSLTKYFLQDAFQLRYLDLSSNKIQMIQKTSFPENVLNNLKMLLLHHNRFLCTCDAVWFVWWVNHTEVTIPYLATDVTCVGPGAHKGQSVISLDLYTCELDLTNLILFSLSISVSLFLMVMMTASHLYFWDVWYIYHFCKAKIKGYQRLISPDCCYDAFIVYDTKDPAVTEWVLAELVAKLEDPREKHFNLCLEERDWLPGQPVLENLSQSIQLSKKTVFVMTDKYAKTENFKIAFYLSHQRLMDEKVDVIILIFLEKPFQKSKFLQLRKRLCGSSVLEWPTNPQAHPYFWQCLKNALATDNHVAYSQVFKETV

For the compound `Cc1c(C2C[C@H]3CNC[C@H]3C2)sc2[nH]c(-c3cc(C)c4ncnn4c3)c(C(C)C)c12` (single isomer, unassigned) [Example 69], the concentration for a half-maximal effect (EC50) was 0.05 nM at TLR7 and 4.2 nM at TLR8.

Consider `Cc1c(-c2[nH]c3sc(C4CC5(CCN(CC(N)=O)C5)C4)c(C)c3c2C(C)C)cn2ncnc2c1C` (single isomer, unassigned) [Example 85, 2-(2-(5-(7,8-dimethyl-[1,2,4]triazolo[1,5-a]pyridin-6-yl)-4 isopropyl-3-methyl-6H-thieno[2,3-b]pyrrol-2-yl)-6-azaspiro[3.4]octan-6-yl)acetamide], for which the concentration for a half-maximal effect (EC50) on TLR7 turned out to be 0.35 nM; on TLR8 it was 0.39 nM.

Regarding `Cc1c(-c2[nH]c3sc(C4CC5(CCN(CC(N)=O)C5)C4)c(C)c3c2C(C)C)cn2ncnc2c1C` (single isomer, unassigned) [Example 86, 2-(2-(5-(7,8-dimethyl-[1,2,4]triazolo[1,5-a]pyridin-6-yl)-4-isopropyl-3-methyl-6H-thieno[2,3-b]pyrrol-2-yl)-6-azaspiro[3.4]octan-6-yl)acetamide], the EC50 at TLR7 turned out to be 2.43 nM; on TLR8 it was 0.98 nM.

Turning to `Cc1c(-c2[nH]c3sc(C4COC5(CCN(CC(N)=O)CC5)C4)c(C)c3c2C(C)C)cn2ncnc2c1C` (single isomer, unassigned) [Example 87, 2-(3-(5-(7,8-dimethyl-[1,2,4]triazolo[1,5-a]pyridin-6-yl)-4-isopropyl-3-methyl-6H-thieno[2,3-b]pyrrol-2-yl)-1-oxa-8-azaspiro[4.5]decan-8-yl)acetamide], the half-maximal effective concentration (EC50) worked out at 0.87 nM on TLR7 and 20.9 nM at TLR8.

For the compound `Cc1c(-c2[nH]c3sc(C4COC5(CCN(CC(N)=O)CC5)C4)c(C)c3c2C(C)C)cn2ncnc2c1C` (single isomer, unassigned) [Example 88, 2-(3-(5-(7,8-dimethyl-[1,2,4]triazolo[1,5-a]pyridin-6-yl)-4-isopropyl-3-methyl-6H-thieno[2,3-b]pyrrol-2-yl)-1-oxa-8-azaspiro[4.5]decan-8-yl)acetamide], the EC50 on TLR7 turned out to be 1.44 nM; on TLR8 it was 23.8 nM.

`Cc1c(-c2[nH]c3sc(C4CC5(CNCCO5)C4)c(C)c3c2C(C)C)cn2ncnc2c1C` (single isomer, unassigned) [Example 89, 2-(5-(7,8-dimethyl-[1,2,4]triazolo[1,5-a]pyridin-6-yl)-4-isopropyl-3-methyl-6H-thieno[2,3-b]pyrrol-2-yl)-5-oxa-8-azaspiro[3.5]nonane]: the EC50 on TLR7 was determined as 0.2 nM.

As for `Cc1c(-c2[nH]c3sc(C4CC5(CNCCO5)C4)c(C)c3c2C(C)C)cn2ncnc2c1C` (single isomer, unassigned) [Example 90, 2-(5-(7,8-dimethyl-[1,2,4]triazolo[1,5-a]pyridin-6-yl)-4-isopropyl-3-methyl-6H-thieno[2,3-b]pyrrol-2-yl)-5-oxa-8-azaspiro[3.5]nonane], the results for the EC50 at TLR7 and on TLR8 were 2.68 nM and 6.79 nM, respectively.

As for `Cc1c(-c2[nH]c3sc([C@@H]4C[C@@H]5CC[C@H]4CN5CC(N)=O)c(C)c3c2C(C)C)cn2ncnc2c1C` (single isomer, unassigned) [Example 95], the EC50 was determined as 0.7 nM on TLR7 and 4.45 nM on TLR8.

Take `Cc1c(-c2[nH]c3sc([C@H]4C[C@@H]5CC[C@H]4CN5CC(N)=O)c(C)c3c2C(C)C)cn2ncnc2c1C` (single isomer, unassigned) [Example 96]: the EC50 worked out at 0.83 nM at TLR7 and 6.75 nM at TLR8.

`Cc1c(-c2[nH]c3sc([C@@H]4C[C@@H]5C[C@H]4CN5C(C)C(N)=O)c(C)c3c2C(C)C)cn2ncnc2c1C` (single isomer, unassigned) [Example 101]: the results for the EC50 at TLR7 and at TLR8 were 0.32 nM and 0.73 nM, respectively.

With `Cc1c(-c2[nH]c3sc(C45CCN(CC(N)=O)CC4C5)c(C)c3c2C(C)C)cn2ncnc2c1C` (single isomer, unassigned) [Example 102, 2-[6-[5-(7,8-dimethyl-[1,2,4]triazolo[1,5-a]pyridin-6-yl)-4-isopropyl-3-methyl-6H-thieno[2,3-b]pyrrol-2-yl]-3-azabicyclo[4.1.0]heptan-3-yl]acetamide], the figures for the EC50 on TLR7 and at TLR8 were 0.09 nM and 23.1 nM, respectively.

For the compound `Cc1c(-c2[nH]c3sc(C45CCN(CC(N)=O)CC4C5)c(C)c3c2C(C)C)cn2ncnc2c1C` (single isomer, unassigned) [Example 103, 2-[6-[5-(7,8-dimethyl-[1,2,4]triazolo[1,5-a]pyridin-6-yl)-4-isopropyl-3-methyl-6H-thieno[2,3-b]pyrrol-2-yl]-3-azabicyclo[4.1.0]heptan-3-yl]acetamide], the values for the 50% effective concentration (EC50) on TLR7 and on TLR8 were 0.91 nM and 20.4 nM, respectively.

As for `Cc1c([C@H]2C[C@H]3CC[C@@H]2CN3CC(N)=O)sc2[nH]c(-c3cc(C)c4ncnn4c3)c(C(C)C)c12` (single isomer, unassigned) [Example 190], the concentration for a half-maximal effect (EC50) at TLR7 amounted to 3.52 nM; at TLR8 it was 13.8 nM.

With `Cc1c([C@@H]2C[C@H]3CC[C@@H]2CN3CC(N)=O)sc2[nH]c(-c3cc(C)c4ncnn4c3)c(C(C)C)c12` (single isomer, unassigned) [Example 191], the EC50 on TLR7 was < 0.05 nM; on TLR8, 8.77 nM.

With `Cc1c(-c2[nH]c3sc([C@H]4C[C@@H]5CC[C@H]4CN5CC(=O)N(C)C)c(C)c3c2C(C)C)cn2ncnc2c1C` (single isomer, unassigned) [Example 212], the EC50 was found to be 0.45 nM on TLR7 and 6.78 nM at TLR8.

In the case of `Cc1c(-c2[nH]c3sc([C@@H]4C[C@@H]5CC[C@H]4CN5CC(=O)N(C)C)c(C)c3c2C(C)C)cn2ncnc2c1C` (single isomer, unassigned) [Example 213], the results for the concentration for a half-maximal effect (EC50) on TLR7 and on TLR8 were 4.05 nM and 3.64 nM, respectively.

With `Cc1c(-c2[nH]c3sc([C@H]4C[C@@H]5CC[C@H]4CN5CCS(C)(=O)=O)c(C)c3c2C(C)C)cn2ncnc2c1C` (single isomer, unassigned) [Example 214], the concentration for a half-maximal effect (EC50) on TLR7 turned out to be 4.47 nM; at TLR8, 3.4 nM.

On to `Cc1c(-c2[nH]c3sc([C@H]4C[C@@H]5CC[C@H]4CN5Cc4cn(C)nn4)c(C)c3c2C(C)C)cn2ncnc2c1C` (single isomer, unassigned) [Example 215], for which the concentration for a half-maximal effect (EC50) is < 0.05 nM on TLR7 and 0.78 nM on TLR8.

For `Cc1c(-c2[nH]c3sc([C@@H]4C[C@@H]5CC[C@H]4CN5Cc4cn(C)nn4)c(C)c3c2C(C)C)cn2ncnc2c1C` (single isomer, unassigned) [Example 216], the EC50 on TLR7 amounted to 2.74 nM; on TLR8, 5.26 nM.

For the compound `Cc1c(-c2[nH]c3sc([C@@H]4C[C@@H]5CC[C@H]4CN5CCS(C)(=O)=O)c(C)c3c2C(C)C)cn2ncnc2c1C` (single isomer, unassigned) [Example 233], the EC50 on TLR7 is 0.16 nM; at TLR8 it was 0.79 nM.

`Cc1c(-c2[nH]c3sc(C4CC(C(=O)N5CCNCC5)C4)c(C)c3c2C(C)C)cn2ncnc2c1C` (single isomer, unassigned) [Example 238, (3-(5-(7,8-dimethyl-[1,2,4]triazolo[1,5-a]pyridin-6-yl)-4-isopropyl-3-methyl-6H-thieno[2,3-b]pyrrol-2-yl)cyclobutyl)(piperazin-1-yl)methanone]: the values for the EC50 at TLR7 and on TLR8 were 0.39 nM and 1.44 nM, respectively.

Regarding `Cc1c(-c2[nH]c3sc(C4CC(C(=O)N5CCNCC5)C4)c(C)c3c2C(C)C)cn2ncnc2c1C` (single isomer, unassigned) [Example 239, (3-(5-(7,8-dimethyl-[1,2,4]triazolo[1,5-a]pyridin-6-yl)-4-isopropyl-3-methyl-6H-thieno[2,3-b]pyrrol-2-yl)cyclobutyl)(piperazin-1-yl)methanone], the half-maximal effective concentration (EC50) at TLR7 is < 0.05 nM; at TLR8, 1.5 nM.

Turning to `Cc1c(-c2[nH]c3sc(C4CC(c5nnc([C@H]6COCCN6)o5)C4)c(C)c3c2C(C)C)cn2ncnc2c1C` (single isomer, unassigned) [Example 240], the values for the EC50 on TLR7 and on TLR8 were 4.86 nM and 48.4 nM, respectively.

As to `Cc1c(-c2[nH]c3sc(C4CC(c5nnc([C@H]6COCCN6)o5)C4)c(C)c3c2C(C)C)cn2ncnc2c1C` (single isomer, unassigned) [Example 241], the EC50 at TLR7 stood at 3.51 nM; at TLR8 it was 30.7 nM.

As for `Cc1c(-c2[nH]c3sc([C@H]4C[C@H](c5nnc([C@@H]6COCCN6)o5)C4)c(C)c3c2C(C)C)cn2ncnc2c1C` (single isomer, unassigned) [Example 242], the concentration for a half-maximal effect (EC50) on TLR7 is 2.9 nM; on TLR8, 37.3 nM.

The term EC50 denotes the concentration that produces a half-maximal response.
